Where two headings read alike, the source gives them in different places.
Key:
[1] = test system: dopaminergic CATH.a cells and 5-HT-containing B65 cells; set-up: method as in doi:10.1007/s11419-020-00527-w; details: 24 h exposure; read-out: EC50, LDH assay; cited from earlier work
[2] = test system: MAO-A and MAO-B; details: rat model; cited from earlier work
[3] = test system: serotonergic B65 cells; set-up: method as in doi:10.1007/s11419-020-00527-w; details: cited from earlier work
[4] = test system: TK6 cells; set-up: method as in PMID 33348640; details: 1 h, cited from earlier work
[5] = test system: differentiated SH-SY5Y cells; details: same experimental conditions; cited from earlier work
[6] = test system: differentiated SH-SY5Y cells; set-up: method as in PMID 37631071, PMID 25900438; details: same in vitro model; cited from earlier work
[7] = test system: differentiated SH-SY5Y cells; set-up: method as in PMID 37631071, PMID 25900438; details: same in vitro model; cited from earlier work; remark: listed apart in the source
[8] = test system: differentiated SH-SY5Y cells; test: Intracellular ROS/RNS levels, DCFH-DA probe; assay type: cell-based, human; details: positive control, 24 h
Protocol: Reactive species play important roles in cell signaling and immune response. However, when their levels are excessive, they can cause oxidative stress and damage the cells. The intracellular reactive oxygen species (ROS) and reactive nitrogen species (RNS) levels were measured using the cell-permeable DCFH-DA probe. Inside the cells, DCFH-DA is cleaved by cellular esterases originating DCFH, which is oxidized by ROS/RNS, resulting in the fluorescent 2′,7′-dichlorofluorescein (DCF).
Therefore, the SH-SY5Y cells were seeded onto 96-well plates (25,000 cells/cm^2) following the previously described seeding and differentiation protocol. […] Tert-butyl hyoperoxide (t-BHP, 100 µM, 24 h) was used as a positive control.
At the end of the incubation period, the DCF fluorescence was measured at an excitation wavelength of 485 nm and an emission wavelength of […] in a multi-well plate reader (PowerWaveX, BioTek Instruments, Winooski, VT, USA). The detection of ROS/RNS was assessed by the percent of probe oxidation relative to the control cells (0 µM), and a minimum of 4 independent experiments were conducted in triplicate.

Row | SMILES | EC50 [1] [µM] | deamination by MAO-A and MAO-B [2] | ROS production [6] | increase in ROS levels ([4]; 12.5 µM) | tGSH content [7] | further results
1 | CNC(C)Cc1ccc2c(c1)OCO2 (stereo not drawn) [MDMA, 3,4-methylenedioxymethamphetamine] | 1500 to 3000 | – | – | – | – | –
2 | COc1cc(CCN)c(OC)cc1I [2C-I] | – | both isoenzymes can catalyze the deamination | – | – | – | mitochondrial production of ROS [3]: increase in the mitochondrial production of ROS; increase in ROS levels ([4]; 35 µM): two-fold
3 | COc1cc(CCN)c(OC)cc1Br [2C-B] | – | both isoenzymes can catalyze the deamination | no ROS production | two-fold | significant decrease in the tGSH content | drug-induced cytotoxicity upon MAO inhibition [5]: significant increase in the drug-induced cytotoxicity was observed upon MAO inhibition
4 | COc1cc(CCNCc2ccccc2OC)c(OC)cc1Br [25B-NBOMe] | – | – | no ROS production | two-fold | significant decrease in the tGSH content | –
5 | CN[C@@H](C)Cc1ccccc1 [methamphetamine] | 1500 to 3000 | – | – | – | – | –
6 | CC(C)(C)OO [t-BHP, tert-butyl hydroperoxide] | – | – | – | – | – | activity at 100 µM ([8]; Homo sapiens, SH-SY5Y, control 100.0%): 188%; increase of ROS levels ([8]; 100 µM): approximately 90%

From article PMC11204507, “Mechanistic Insights into the Neurotoxicity of 2,5-Dimethoxyphenethylamines (2C) and Corresponding N-(2-methoxybenzyl)phenethylamine (NBOMe) Drugs” (Journal of Xenobiotics, 2024)
